Target: ATP-dependent translocase ABCB1 (Homo sapiens, UniProt P08183)
Assay: TP_TRANSPORTER: increase in Rhodamine 123 intracellular accumulation (R123: 10 uM, Tamolarizine: 10 uM) in K562/DX cellsR cells, FACScan
Format: functional, cell-based
Details: k562/dxr

Sequence of ATP-dependent translocase ABCB1 (P08183 whole entry): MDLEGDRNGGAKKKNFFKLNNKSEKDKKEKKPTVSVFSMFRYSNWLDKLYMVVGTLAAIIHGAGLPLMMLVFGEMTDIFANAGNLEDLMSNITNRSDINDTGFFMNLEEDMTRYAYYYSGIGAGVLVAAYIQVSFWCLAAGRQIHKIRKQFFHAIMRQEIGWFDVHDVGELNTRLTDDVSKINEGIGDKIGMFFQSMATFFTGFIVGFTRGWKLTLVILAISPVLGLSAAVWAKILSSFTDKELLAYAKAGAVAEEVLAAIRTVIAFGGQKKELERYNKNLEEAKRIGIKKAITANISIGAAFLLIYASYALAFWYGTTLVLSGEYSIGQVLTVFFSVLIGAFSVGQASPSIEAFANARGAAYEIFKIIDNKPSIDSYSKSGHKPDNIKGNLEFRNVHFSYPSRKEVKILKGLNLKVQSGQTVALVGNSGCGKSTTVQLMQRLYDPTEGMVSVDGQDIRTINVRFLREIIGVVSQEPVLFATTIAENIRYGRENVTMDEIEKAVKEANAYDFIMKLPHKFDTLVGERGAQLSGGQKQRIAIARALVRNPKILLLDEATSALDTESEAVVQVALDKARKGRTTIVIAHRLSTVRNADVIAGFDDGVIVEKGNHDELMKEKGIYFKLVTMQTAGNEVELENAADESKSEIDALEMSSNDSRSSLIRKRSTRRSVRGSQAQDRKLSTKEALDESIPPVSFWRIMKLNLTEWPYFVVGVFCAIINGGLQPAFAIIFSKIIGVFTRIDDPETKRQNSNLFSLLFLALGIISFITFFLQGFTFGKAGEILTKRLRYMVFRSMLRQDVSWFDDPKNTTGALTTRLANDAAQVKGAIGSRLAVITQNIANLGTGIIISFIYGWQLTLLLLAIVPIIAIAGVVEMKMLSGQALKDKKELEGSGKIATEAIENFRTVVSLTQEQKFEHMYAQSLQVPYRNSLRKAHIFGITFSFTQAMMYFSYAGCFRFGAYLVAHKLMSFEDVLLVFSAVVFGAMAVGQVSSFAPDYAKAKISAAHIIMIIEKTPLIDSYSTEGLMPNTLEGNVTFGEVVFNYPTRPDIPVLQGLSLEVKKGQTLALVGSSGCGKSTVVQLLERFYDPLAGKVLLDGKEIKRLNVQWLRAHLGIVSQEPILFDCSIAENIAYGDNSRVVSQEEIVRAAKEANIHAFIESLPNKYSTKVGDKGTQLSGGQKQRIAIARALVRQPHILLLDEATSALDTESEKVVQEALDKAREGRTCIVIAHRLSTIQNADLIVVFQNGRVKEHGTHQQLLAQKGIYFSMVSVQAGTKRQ

Activity: inhibitor [+]
SMILES: COc1ccc(C(O)CN2CCN(C(c3ccccc3)c3ccccc3)CC2)cc1OC (stereo unspecified) [TAMOLARIZINE]

Reference: ChEMBL document CHEMBL2074184, “Reversal of multidrug resistance in human leukemia K562 by tamolarizine, a novel calcium antagonist” (Jpn J Pharmacol, 2000)
